Laboratory results: article PMC3506268, “Microneedle pretreatment enhances the percutaneous permeation of hydrophilic compounds with high melting points” (BMC Pharmacology & Toxicology, 2012)
Where two headings read alike, the source gives them in different places.

Legend:
in vitro = conditions: for Jmax: 80% saturated solution in PBS, 6 h; for Jmax / Papp at 6 h / recovery: mean, n = 5–6; for Papp at 6 h / recovery: female, Holstein Friesian, bovine; for Papp at 6 h: 10^-6 Papp
Protocol: The skin was obtained from bovine udders, all of which were harvested from Holstein Friesian cows which died at a slaughterhouse for food production, and the cleaned skin samples were stored at - 20°C until use. After thawing at room temperature split skin samples with a thickness of 600 μm ± 50 μm were produced using an electrical microtome (Zimmer, Eschbach, Germany), whereby damaged skin samples were excluded from the study.
Prior to the experiment split skin samples with appropriate size of 2 x 2 cm were incubated in phosphate buffered saline (PBS) for 30 minutes. They were placed on a styropor panel and fixed with needles beyond the subsequent diffusion area of the skin samples before the microneedle rollers were rolled in four axes radial over the skin surface (Figure 1 C).
The diffusion experiments were performed in Franz-type diffusion cells obtained from PermeGear (Riegelsville, PA, USA) with a receptor chamber of approximately 12 ml and a diffusion area of approximately 1.77 cm². Sonicated PBS was used as receptor fluid. […] The donor chambers were covered with parafilm® (American Can Company, Baltimore, USA) and were checked for precipitation of the compounds during the whole experiment. Aliquots were taken from the receptor fluid and replaced by the same amount of fresh PBS at 0, 0.5, 1, 2, 4, and 6 hours. Each treatment (untreated control, 200 μm microneedle, and 300 μm microneedle) was performed in duplicate per animal (n = 6).
The receptor fluid samples (100 μl) were analysed by high-performance liquid-chromatography, the methodology of which has derived from recent studies. […] The separation took place on a reversed phase column (LiChroCART 125–4, LiChrospher 100 RP-18e, 5 μm (Merck, Darmstadt, Germany)), which was maintained at 40°C.
The linear part of the gradient of the permeation curve (time vs. concentration in the receptor fluid) represents the maximum flux Jmax (μg/cm²/h) and is employed to calculate the apparent permeability coefficient Papp (cm/s) according to Niedorf et al. 2008 [23]. Differences between control samples and pretreated skin samples were evaluated by Friedman test followed by Dunn´s multiple comparison test (GraphPad Prism 4.01 (GraphPad Software Inc., San Diego, USA). A 0.05 significance level was adopted.

[1] = design: method as in earlier work; conditions: cited from earlier work
[2] = design: method as in PMID 20624460; conditions: microneedle treated skin, in vitro; cited from earlier work
[3] = 200 μm microneedle pretreatment
[4] = 300 μm microneedle pretreatment
[5] = 300 μm microneedle pretreatment, * = p<0.05 versus control

Structure (SMILES) | Jmax (in vitro; [3]) | Increase of maximum flux (Jmax) and Papp-value versus untreated skin (in vitro; [4]) | Jmax (in vitro; [4]) | Papp at 6 h (in vitro; [5]) | Papp at 6 h (in vitro; untreated control skin) | recovery (in vitro; [3]) | recovery (in vitro; [4]) | recovery (in vitro; untreated control skin) | Jmax (in vitro; untreated control skin) | logKo/w [1] | logKo/w ([1]; listed as diclofenac) | Higher flux through pretreated skin compared to untreated skin (in vitro; [3]) | Higher flux through pretreated skin compared to untreated skin (in vitro; [4]) | Papp at 6 h (in vitro; [3]) | Permeation enhancement [2]
O=C(O)Cc1ccccc1Nc1c(Cl)cccc1Cl [Diclofenac] | 8.75 μg/cm²/h | ≤ 7 fold | 11.55 μg/cm²/h | 12.4 nm/s | 1.8 nm/s | 3.17% | 3.54% | 0.49% | 1.72 μg/cm²/h | 0.7 | < 1 | – | – | – | –
CC(C)Cc1ccc(C(C)C(=O)O)cc1 (stereo not drawn) [Ibuprofen, ibuprofen] | – | up to 3 fold | – | – | – | 11.2% | 17.8% | 6.76% | – | – | – | twofold | threefold | – | –
CC(C(=O)O)c1cccc(C(=O)c2ccccc2)c1 (stereo not drawn) [Ketoprofen, ketoprofen] | 2.36 μg/cm²/h | up to 3 fold | 2.99 μg/cm²/h | 3.5 nm/s | 1.2 nm/s | 0.76% | 0.96% | 0.3% | 1.03 μg/cm²/h | – | – | twofold | threefold | 2.8 nm/s | –
CC(=O)Oc1ccccc1C(=O)O [acetylsalicylic acid] | – | – | – | – | – | – | – | – | – | – | – | – | – | – | up to 2 times
